ChEMBL document CHEMBL1157033, “Developing a complete pharmacology for AMPA receptors: a perspective on subtype-selective ligands” (Bioorg Med Chem, 2010)

Assays:
Glutamate receptor 1 [1] = target: T1, Glutamate receptor 1 (Homo sapiens, UniProt P42261); experiment: Inhibition of recombinant GluA1 receptor flip isoform expressed in Xenopus oocytes assessed as inhibition of […] uM glutamate-induced current; type: cell-based, Oocyte
[2] = target: T2, Glutamate receptor AMPA 1/2 (Homo sapiens, UniProt P42261+P42262); experiment: Inhibition of recombinant GluA1A2 receptor flip isoform expressed in Xenopus oocytes assessed as inhibition of […] uM glutamate-induced current; type: cell-based, Oocyte
Glutamate receptor 1 [3] = target: T1, Glutamate receptor 1; details: Oocyte; at 100 µM
Glutamate receptor 2 [4] = target: T3, Glutamate receptor 2 (Homo sapiens, UniProt P42262); details: Oocyte; at 100 µM
Glutamate receptor 3 [5] = target: T4, Glutamate receptor 3 (Homo sapiens, UniProt P42263); details: Oocyte; at 100 µM
[6] = target: Glutamate receptor AMPA 1/2 (Homo sapiens) (UniProt P42262+P42261); details: Oocyte; at 100 µM
[7] = target: Glutamate receptor AMPA 2/3 (Homo sapiens) (UniProt P42263+P42262); details: Oocyte; at 100 µM
Glutamate receptor 2 [8] = target: T3, Glutamate receptor 2; experiment: Activity at human recombinant GluA2 flip isoform expressed in HEK203 cells assessed as blocked of receptor desensitization
Glutamate receptor 2 [9] = target: T3, Glutamate receptor 2; experiment: Activity at human recombinant GluA2 flop isoform expressed in HEK203 cells assessed as blocked of receptor desensitization
Glutamate receptor 1 [10] = target: T1, Glutamate receptor 1; experiment: Activity at human recombinant GluA1 receptor flip isoform expressed in HEK293 cells assessed as effect on glutamate-induced calcium flux by Fluo-4/AM staining-based fluorescence assay; type: cell-based
Glutamate receptor 2 [11] = target: T3, Glutamate receptor 2; experiment: Activity at human recombinant GluA2 receptor flip isoform expressed in HEK293 cells assessed as effect on glutamate-induced calcium flux by Fluo-4/AM staining-based fluorescence assay; type: cell-based
Glutamate receptor 2 [12] = target: T3, Glutamate receptor 2; experiment: Activity at human recombinant GluA2 receptor flop isoform expressed in HEK293 cells assessed as effect on glutamate-induced calcium flux by Fluo-4/AM staining-based fluorescence assay; type: cell-based
Glutamate receptor 3 [13] = target: T4, Glutamate receptor 3; experiment: Activity at human recombinant GluA3 receptor flip isoform expressed in HEK293 cells assessed as effect on glutamate-induced calcium flux by Fluo-4/AM staining-based fluorescence assay; type: cell-based
[14] = Activity at human recombinant GluA4 receptor flip isoform expressed in HEK293 cells assessed as effect on glutamate-induced calcium flux by Fluo-4/AM staining-based fluorescence assay; type: cell-based
Glutamate receptor 1 [15] = target: T1, Glutamate receptor 1; experiment: Activity at recombinant GluA1 receptor flop isoform expressed in Xenopus oocytes assessed as effect of 100 uM kainate-induced current by patch clamp electrophysiological assay; type: cell-based, Oocyte
[16] = target: T2, Glutamate receptor AMPA 1/2; experiment: Activity at recombinant GluA1A2 receptor flop isoform expressed in Xenopus oocytes assessed as effect of 100 uM kainate-induced current by patch clamp electrophysiological assay; type: cell-based, Oocyte
Glutamate receptor 1 [17] = target: T1, Glutamate receptor 1; type: cell-based, Oocyte
Glutamate receptor 3 [18] = target: T4, Glutamate receptor 3; experiment: Inhibition of recombinant GluA3 receptor flip isoform expressed in Xenopus oocytes assessed as inhibition of […] uM kainate-induced current by patch clamp electrophysiological assay; type: cell-based, Oocyte
[19] = Inhibition of recombinant GluA4 receptor flip isoform expressed in Xenopus oocytes assessed as inhibition of […] uM kainate-induced current by patch clamp electrophysiological assay; type: cell-based; details: Oocyte
[20] = target: T2, Glutamate receptor AMPA 1/2; type: cell-based, Oocyte
Glutamate receptor 1 [21] = target: T1, Glutamate receptor 1; type: cell-based, Oocyte; remark: listed apart in the source
Glutamate receptor 3 [22] = target: T4, Glutamate receptor 3; experiment: Inhibition of GluA3 receptor expressed in Xenopus oocytes assessed as inhibition of […] uM kainate-induced current by patch clamp electrophysiological assay; type: cell-based, Oocyte
Glutamate receptor 4 = Glutamate receptor 4 (Homo sapiens, UniProt P48058); experiment: Inhibition of GluA4 receptor expressed in Xenopus oocytes assessed as inhibition of […] uM kainate-induced current by patch clamp electrophysiological assay; type: cell-based, Oocyte
Glutamate receptor 1 [23] = target: Glutamate receptor 1 (Rattus norvegicus, UniProt P19490); type: cell-based, Oocyte
[24] = target: Glutamate receptor AMPA 1/2 (Rattus norvegicus, UniProt P19490+P19491); type: cell-based, Oocyte
Glutamate receptor AMPA 1/2 (Rattus norvegicus, UniProt P19490+P19491), sequence (P19491 whole entry): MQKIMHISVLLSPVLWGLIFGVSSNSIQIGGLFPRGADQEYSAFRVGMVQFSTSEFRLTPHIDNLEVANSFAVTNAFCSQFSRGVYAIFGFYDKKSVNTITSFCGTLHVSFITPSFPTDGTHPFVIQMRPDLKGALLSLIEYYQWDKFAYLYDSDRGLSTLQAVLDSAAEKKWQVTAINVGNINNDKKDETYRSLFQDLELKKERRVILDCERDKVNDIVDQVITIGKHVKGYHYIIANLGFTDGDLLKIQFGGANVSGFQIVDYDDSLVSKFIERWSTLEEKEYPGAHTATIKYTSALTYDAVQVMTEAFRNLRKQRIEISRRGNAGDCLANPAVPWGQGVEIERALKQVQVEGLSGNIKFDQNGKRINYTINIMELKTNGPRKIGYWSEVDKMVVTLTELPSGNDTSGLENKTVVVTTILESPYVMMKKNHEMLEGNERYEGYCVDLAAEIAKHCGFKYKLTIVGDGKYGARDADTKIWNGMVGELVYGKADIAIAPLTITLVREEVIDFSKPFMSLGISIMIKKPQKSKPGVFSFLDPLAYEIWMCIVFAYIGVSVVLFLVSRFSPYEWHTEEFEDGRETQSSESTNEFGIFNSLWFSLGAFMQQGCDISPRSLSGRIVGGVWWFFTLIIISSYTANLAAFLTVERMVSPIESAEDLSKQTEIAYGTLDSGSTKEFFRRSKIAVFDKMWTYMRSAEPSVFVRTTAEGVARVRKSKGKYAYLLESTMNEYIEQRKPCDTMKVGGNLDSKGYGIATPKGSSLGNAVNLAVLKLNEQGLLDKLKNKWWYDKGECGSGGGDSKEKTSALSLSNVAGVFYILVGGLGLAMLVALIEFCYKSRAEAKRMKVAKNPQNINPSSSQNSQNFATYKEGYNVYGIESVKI
Glutamate receptor AMPA 1/2 (Rattus norvegicus, UniProt P19490+P19491), sequence (P19490 whole entry): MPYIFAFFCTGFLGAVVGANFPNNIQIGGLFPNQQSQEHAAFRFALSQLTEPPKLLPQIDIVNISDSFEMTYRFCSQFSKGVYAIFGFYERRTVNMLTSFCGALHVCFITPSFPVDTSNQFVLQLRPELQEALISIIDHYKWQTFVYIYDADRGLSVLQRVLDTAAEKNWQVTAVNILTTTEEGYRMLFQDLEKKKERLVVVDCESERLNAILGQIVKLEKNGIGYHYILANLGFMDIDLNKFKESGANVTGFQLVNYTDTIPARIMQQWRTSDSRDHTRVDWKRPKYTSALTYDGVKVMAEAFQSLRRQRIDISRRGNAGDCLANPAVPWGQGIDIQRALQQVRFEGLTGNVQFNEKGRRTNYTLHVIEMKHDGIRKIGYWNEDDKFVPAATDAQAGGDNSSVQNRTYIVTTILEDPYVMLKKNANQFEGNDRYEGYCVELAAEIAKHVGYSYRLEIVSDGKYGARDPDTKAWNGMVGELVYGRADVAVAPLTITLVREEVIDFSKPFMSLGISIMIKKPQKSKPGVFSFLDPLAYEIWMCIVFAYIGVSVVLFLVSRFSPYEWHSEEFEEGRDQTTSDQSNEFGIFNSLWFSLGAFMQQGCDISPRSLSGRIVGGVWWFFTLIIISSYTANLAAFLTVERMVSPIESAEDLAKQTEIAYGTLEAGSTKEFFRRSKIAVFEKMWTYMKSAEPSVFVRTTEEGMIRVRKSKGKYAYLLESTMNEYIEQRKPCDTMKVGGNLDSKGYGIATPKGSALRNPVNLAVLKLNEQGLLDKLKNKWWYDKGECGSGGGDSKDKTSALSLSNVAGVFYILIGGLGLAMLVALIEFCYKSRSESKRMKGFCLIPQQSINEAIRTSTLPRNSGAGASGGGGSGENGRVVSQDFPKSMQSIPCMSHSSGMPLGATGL

T4 sequence (P42263 whole entry): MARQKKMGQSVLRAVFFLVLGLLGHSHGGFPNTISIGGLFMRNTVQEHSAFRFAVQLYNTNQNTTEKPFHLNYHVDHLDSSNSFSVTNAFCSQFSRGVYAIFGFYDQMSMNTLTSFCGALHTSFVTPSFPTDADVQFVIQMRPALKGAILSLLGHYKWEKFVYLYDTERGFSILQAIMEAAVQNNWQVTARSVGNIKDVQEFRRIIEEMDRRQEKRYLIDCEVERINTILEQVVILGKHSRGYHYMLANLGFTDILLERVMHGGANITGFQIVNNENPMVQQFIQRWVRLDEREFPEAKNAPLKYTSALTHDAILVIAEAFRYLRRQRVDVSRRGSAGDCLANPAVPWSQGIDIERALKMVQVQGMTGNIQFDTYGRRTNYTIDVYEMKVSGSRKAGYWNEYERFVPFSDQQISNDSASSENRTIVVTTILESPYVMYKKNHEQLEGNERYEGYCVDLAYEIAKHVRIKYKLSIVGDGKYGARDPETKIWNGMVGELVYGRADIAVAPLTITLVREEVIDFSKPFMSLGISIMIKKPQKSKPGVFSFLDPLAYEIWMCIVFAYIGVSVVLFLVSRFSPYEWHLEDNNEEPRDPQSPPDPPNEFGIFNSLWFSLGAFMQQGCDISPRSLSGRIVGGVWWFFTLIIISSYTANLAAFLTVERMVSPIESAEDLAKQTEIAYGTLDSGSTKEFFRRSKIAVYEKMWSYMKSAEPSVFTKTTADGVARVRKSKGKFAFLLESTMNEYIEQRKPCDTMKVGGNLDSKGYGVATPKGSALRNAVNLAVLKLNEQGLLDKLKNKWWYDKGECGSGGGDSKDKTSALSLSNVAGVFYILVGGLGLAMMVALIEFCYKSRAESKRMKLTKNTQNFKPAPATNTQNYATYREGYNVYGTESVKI
T2 sequence (P42262 whole entry, canonical isoform): as the sequence (P19491 whole entry) above, with T191M, A291T, G764R, P852A counted along it
T2 sequence (P42261 whole entry, canonical isoform): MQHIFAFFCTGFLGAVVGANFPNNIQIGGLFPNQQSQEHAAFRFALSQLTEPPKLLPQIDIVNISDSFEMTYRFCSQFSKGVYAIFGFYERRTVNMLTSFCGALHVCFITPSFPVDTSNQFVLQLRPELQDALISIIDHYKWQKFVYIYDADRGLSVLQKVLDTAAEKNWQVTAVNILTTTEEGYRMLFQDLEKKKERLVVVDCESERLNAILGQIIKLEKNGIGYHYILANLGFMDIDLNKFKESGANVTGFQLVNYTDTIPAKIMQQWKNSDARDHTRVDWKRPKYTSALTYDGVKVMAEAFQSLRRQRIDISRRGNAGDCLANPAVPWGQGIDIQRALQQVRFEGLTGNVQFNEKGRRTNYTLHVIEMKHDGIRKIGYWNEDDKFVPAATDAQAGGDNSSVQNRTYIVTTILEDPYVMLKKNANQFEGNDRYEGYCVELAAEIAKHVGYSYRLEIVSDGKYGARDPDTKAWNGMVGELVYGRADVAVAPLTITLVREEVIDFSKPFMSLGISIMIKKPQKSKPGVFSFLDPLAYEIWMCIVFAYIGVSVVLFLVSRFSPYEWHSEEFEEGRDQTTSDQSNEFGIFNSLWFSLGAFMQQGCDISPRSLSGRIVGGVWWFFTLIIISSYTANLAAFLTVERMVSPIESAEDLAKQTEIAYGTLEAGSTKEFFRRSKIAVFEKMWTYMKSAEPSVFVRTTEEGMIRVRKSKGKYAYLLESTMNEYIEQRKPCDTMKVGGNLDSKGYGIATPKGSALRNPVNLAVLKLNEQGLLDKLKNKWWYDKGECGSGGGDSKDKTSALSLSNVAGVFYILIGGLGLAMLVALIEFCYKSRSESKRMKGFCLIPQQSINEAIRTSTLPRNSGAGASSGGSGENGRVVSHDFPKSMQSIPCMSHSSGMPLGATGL
T3 sequence (P42262 whole entry): as the sequence (P19491 whole entry) above, with T191M, A291T, G764R, P852A counted along it
T1 sequence (P42261 whole entry, canonical isoform): as the sequence (P42261 whole entry, canonical isoform) above
Glutamate receptor 1 (Rattus norvegicus, UniProt P19490), sequence (P19490 whole entry): as the sequence (P19490 whole entry) above
Glutamate receptor 4, sequence (P48058 whole entry): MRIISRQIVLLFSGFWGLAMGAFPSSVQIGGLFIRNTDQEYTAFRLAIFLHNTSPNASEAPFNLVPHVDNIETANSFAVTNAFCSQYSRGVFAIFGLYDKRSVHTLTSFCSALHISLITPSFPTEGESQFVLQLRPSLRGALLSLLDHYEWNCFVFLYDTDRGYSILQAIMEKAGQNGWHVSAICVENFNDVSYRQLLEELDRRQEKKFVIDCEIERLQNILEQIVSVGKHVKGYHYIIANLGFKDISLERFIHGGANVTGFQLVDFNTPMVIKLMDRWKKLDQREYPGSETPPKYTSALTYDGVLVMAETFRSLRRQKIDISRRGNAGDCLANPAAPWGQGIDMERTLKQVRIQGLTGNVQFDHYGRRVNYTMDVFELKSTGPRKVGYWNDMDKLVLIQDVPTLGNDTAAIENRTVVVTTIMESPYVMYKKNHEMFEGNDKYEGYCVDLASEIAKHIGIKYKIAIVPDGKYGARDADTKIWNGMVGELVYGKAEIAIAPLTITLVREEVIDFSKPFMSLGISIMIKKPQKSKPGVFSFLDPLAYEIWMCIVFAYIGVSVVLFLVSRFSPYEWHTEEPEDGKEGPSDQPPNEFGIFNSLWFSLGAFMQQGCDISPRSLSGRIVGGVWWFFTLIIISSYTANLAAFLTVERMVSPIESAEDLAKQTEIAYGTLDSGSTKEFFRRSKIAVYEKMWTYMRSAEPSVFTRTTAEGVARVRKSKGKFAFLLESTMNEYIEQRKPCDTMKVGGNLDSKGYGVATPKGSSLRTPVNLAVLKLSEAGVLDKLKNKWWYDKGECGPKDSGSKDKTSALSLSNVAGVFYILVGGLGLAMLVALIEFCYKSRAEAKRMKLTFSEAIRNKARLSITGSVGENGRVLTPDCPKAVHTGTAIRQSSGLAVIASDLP

CCCC(=O)N[C@@H](Cc1ccc(O)cc1)C(=O)NCCCCCCCNCCCCN
Ki (Glutamate receptor 1 [1]): 0.168 µM
Ki [2]: 1.6 µM
inhibition (Glutamate receptor 1 [3]): 100%
inhibition (Glutamate receptor 2 [4]): 2.1%
inhibition (Glutamate receptor 3 [5]): 100%
inhibition [6]: 84.3%
inhibition [7]: 2.6%

CC(CNS(=O)(=O)C(C)C)C1CCC(c2ccc(C#N)cc2)CC1 (stereo not given)
EC50 (Glutamate receptor 2 [8]): 15 µM
EC50 (Glutamate receptor 2 [9]): 1.44 µM
EC50 (Glutamate receptor 1 [10]): 5.65 µM
EC50 (Glutamate receptor 2 [11]): 0.15 µM
EC50 (Glutamate receptor 2 [12]): 1.44 µM
EC50 (Glutamate receptor 3 [13]): 1.66 µM
EC50 [14]: 0.21 µM

N=C(N)NCCC[C@H](N)C(=O)NCCCNCCCNCCCCCNC(=O)[C@H](CC(N)=O)NC(=O)Cc1ccc(O)cc1O
IC50 (Glutamate receptor 1 [15]): 3.4 µM
IC50 [16]: 300 µM
IC50 (Glutamate receptor 1 [17]): 0.35 µM
IC50 (Glutamate receptor 3 [18]): 0.23 µM
IC50 [19]: 0.43 µM
IC50 [20]: 5.5 µM
IC50 (Glutamate receptor 1 [21]): 0.35 µM
IC50 (Glutamate receptor 3 [22]): 0.23 µM
IC50 (Glutamate receptor 4): 0.43 µM
IC50 (Glutamate receptor 1 [23]): 3.4 µM
IC50 [24]: 300 µM
